Reference: US10479786B2, “Protein kinase inhibitors” (Princeton Drug Discovery Inc, priority 2016, dated 2019)
pIC50: −log10 of the molar value.

Experiments:
FYN(isoform a) = biological target: T1, FYN(isoform a) (Homo sapiens, UniProt P06241); test: Off-chip Mobility Shift Assay, kinase inhibition; format: biochemical; details: at 10 nM; recombinant FYN(isoform a)
T1 construct: purchased Carna Biosciences, Inc

FGR = biological target: T2, FGR (Homo sapiens, UniProt P09769); test: Off-chip Mobility Shift Assay, kinase inhibition; format: biochemical; details: at 10 nM; recombinant FGR; read-out: inhibition
T2 construct: purchased Carna Biosciences, Inc
T2 sequence (P09769 whole entry): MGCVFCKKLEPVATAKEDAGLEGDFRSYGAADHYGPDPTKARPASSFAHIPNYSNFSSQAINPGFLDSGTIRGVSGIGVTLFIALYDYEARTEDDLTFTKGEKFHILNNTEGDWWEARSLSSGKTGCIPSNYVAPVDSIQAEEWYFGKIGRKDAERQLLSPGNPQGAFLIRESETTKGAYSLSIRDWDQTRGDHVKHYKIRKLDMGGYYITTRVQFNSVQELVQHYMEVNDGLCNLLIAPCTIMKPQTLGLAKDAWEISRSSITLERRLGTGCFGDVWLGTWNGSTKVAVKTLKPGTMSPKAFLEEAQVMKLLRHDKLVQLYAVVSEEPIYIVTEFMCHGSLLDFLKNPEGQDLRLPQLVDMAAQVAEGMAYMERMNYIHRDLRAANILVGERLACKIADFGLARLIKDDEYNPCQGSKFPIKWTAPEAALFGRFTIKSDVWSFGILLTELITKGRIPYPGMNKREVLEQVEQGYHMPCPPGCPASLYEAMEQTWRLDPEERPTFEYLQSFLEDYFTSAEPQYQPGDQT

PDGFRα = biological target: T3, PDGFRα (Homo sapiens, UniProt P16234); test: Off-chip Mobility Shift Assay, kinase inhibition; format: biochemical; details: at 10 nM; recombinant PDGFRα; read-out: inhibition
T3 construct: purchased Carna Biosciences, Inc

ACK = biological target: T4, ACK (Homo sapiens, UniProt Q07912); test: Off-chip Mobility Shift Assay, kinase inhibition; format: biochemical; details: at 10 nM; recombinant ACK
T4 construct: purchased Carna Biosciences, Inc

Mino = test: Cell inhibition assay (PrestoBlue, 48 h); format: cell-based; details: Homo sapiens, Mino cells, read-out: IC50, inhibition of growth
SU-DHL-4 = test: Cell inhibition assay (PrestoBlue, 48 h); format: cell-based; details: Homo sapiens, SU-DHL-4, 48 h, SU-DHL-4 diffuse large B-cell lymphoma cells, read-out: IC50, inhibition of growth
ABL(E255K) = biological target: T5, ABL(E255K) (Homo sapiens, UniProt P00519, E255K); test: Off-chip Mobility Shift Assay, kinase inhibition; format: biochemical; details: recombinant ABL(E255K)
T5 construct: purchased Carna Biosciences, Inc
T5 sequence (P00519 whole entry E255K): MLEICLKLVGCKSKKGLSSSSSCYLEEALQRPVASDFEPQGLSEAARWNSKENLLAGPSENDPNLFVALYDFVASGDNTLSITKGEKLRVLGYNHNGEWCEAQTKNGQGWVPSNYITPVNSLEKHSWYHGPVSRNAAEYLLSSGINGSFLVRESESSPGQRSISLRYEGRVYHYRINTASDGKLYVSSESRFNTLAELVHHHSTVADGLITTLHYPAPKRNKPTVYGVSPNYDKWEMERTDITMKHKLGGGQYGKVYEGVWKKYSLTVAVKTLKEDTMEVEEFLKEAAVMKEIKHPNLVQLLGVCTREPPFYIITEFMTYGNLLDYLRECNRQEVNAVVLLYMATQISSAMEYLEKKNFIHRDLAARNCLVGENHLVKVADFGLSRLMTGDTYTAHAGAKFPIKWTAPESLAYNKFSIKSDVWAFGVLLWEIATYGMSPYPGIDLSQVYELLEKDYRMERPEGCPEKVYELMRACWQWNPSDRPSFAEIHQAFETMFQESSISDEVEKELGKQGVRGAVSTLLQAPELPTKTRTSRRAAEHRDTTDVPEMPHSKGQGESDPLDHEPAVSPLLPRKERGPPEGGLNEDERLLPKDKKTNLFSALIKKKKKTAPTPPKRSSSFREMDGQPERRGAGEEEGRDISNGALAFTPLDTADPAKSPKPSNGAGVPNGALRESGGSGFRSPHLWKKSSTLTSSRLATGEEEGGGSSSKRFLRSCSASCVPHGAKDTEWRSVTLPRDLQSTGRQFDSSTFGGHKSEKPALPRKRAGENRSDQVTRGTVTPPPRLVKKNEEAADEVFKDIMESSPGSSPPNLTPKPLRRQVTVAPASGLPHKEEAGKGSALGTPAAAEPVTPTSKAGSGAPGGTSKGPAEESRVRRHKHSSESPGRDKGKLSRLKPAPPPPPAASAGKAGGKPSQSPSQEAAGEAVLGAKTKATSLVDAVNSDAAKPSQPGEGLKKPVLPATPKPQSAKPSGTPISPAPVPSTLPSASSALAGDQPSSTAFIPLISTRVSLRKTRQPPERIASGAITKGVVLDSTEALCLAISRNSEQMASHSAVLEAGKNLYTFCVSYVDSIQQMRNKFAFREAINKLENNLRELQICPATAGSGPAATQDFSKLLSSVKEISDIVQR

HCK = biological target: T6, HCK (Homo sapiens, UniProt P08631); test: Off-chip Mobility Shift Assay, kinase inhibition; format: biochemical; details: recombinant HCK
T6 construct: purchased Carna Biosciences, Inc
T6 sequence (P08631 whole entry): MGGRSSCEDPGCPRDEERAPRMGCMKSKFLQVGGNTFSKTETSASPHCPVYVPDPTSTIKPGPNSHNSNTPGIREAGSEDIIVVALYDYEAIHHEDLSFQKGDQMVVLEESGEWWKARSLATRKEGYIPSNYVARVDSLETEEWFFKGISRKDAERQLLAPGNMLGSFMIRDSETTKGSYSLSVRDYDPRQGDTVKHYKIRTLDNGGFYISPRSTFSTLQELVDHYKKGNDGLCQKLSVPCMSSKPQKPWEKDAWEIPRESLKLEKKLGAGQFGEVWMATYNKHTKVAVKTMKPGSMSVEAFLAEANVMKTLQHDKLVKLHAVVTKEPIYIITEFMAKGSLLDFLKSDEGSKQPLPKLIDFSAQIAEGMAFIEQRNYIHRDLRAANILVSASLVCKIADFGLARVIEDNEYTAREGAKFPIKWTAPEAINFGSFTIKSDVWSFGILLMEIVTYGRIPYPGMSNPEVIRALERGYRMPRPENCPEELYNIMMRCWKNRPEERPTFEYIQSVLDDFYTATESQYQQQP

ARG = biological target: T7, ARG (Homo sapiens, UniProt P42684); test: Off-chip Mobility Shift Assay, kinase inhibition; format: biochemical; details: at 10 nM; recombinant ARG; read-out: inhibition
T7 construct: purchased Carna Biosciences, Inc

[1] = Metabolic stability in human liver microsomes; format: in vitro ADME
[2] = test system: battery of selected protein kinases; test: In vitro screen of a battery of selected protein kinases (summary statement); format: biochemical; details: BTK, BMX, ABL, ABL(E255K), SRC, ACK, ARG, BLK, DDR2, EPHA, FGR, FMS, FRK, FYN, HCK, LCK, LYN, PDGFRα, PDGFRβ, YES, PIK3CA/PIK3R1, among others
[3] = Pharmacokinetics in Sprague-Dawley rats, 2-in-1 dosing; format: in vivo; details: rat
Procedure: Sprague-Dawley rats (approximate weight 275-300 g, N=3) were dosed intravenously at 5 mL/kg and orally at 10 mL/kg with the above dosing solutions. Blood samples were collected into tubes containing EDTA as the anticoagulant at 0, 0.25 (intravenous only), 0.5, 1, 2, 4, 8, 10, and 24 h post-dosing, and plasma samples were prepared by centrifugation. The plasma samples were mixed with 3× volumes of acetonitrile containing 100 nM reserpine as the internal standard, and centrifuged at 4000 RPM for 15 min. The supernatants were injected for LC/MS analysis which were carried out on a AB Sciex 4000 Q Trap LC/MS/MS system coupled with Shimadzu Prominence UFLCXR 20 series (including a CBM-20A controller, two LC-20ADXR solvent delivery units, SIL-20AC HT autosampler, CTO-20A column oven, and a SPD-20A UV detector). The samples were separated on a Phenomenex Columbus column (C18, 4 μm, 50×2 mm) eluted with two solvent systems: 2 mM ammonium acetate in water containing 0.1% formic acid (A) and methanol (B) at a linear gradient starting with 25% B. Electrospray ionization in positive mode was used to acquire LC/MS/MS data.

BTK = biological target: T8, BTK (Homo sapiens, UniProt Q06187); test: Off-chip Mobility Shift Assay, kinase inhibition; format: biochemical; details: recombinant BTK
T8 construct: purchased Carna Biosciences, Inc
T8 sequence (Q06187 whole entry): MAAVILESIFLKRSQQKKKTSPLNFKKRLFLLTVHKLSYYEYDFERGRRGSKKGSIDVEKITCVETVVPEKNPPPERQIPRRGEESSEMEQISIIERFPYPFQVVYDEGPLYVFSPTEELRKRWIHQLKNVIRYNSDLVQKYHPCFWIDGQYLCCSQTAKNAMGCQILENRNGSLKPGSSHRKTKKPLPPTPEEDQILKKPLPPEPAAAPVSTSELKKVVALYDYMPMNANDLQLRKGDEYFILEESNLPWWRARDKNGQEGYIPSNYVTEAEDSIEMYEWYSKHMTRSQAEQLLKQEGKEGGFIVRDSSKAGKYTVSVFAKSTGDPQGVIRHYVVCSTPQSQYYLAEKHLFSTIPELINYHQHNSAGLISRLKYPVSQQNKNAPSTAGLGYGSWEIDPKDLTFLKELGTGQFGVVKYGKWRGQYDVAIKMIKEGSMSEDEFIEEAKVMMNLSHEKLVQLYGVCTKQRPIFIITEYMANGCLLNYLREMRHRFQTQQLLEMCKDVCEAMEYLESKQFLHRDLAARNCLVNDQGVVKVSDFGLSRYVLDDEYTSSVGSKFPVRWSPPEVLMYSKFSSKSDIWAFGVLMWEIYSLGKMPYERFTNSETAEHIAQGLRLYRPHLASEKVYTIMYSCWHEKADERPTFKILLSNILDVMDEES

YES = biological target: T9, YES (Homo sapiens, UniProt P07947); test: Off-chip Mobility Shift Assay, kinase inhibition; format: biochemical; details: recombinant YES
T9 construct: purchased Carna Biosciences, Inc
T9 sequence (P07947 whole entry): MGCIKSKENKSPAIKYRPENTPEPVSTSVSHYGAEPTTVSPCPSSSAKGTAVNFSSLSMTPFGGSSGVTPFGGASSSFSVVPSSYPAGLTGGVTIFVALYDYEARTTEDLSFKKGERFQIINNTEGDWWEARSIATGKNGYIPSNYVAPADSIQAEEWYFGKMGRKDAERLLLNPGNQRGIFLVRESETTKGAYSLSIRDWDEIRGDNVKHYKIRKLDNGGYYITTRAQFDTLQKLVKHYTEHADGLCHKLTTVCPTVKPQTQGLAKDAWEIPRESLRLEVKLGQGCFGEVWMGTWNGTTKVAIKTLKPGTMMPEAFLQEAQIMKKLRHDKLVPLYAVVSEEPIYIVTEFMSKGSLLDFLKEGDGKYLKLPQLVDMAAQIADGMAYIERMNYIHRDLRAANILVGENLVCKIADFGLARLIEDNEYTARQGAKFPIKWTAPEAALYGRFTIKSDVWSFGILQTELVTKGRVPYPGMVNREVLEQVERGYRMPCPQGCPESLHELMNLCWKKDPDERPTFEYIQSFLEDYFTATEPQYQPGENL

TEC = biological target: T10, TEC (Homo sapiens, UniProt P42680); test: Off-chip Mobility Shift Assay, kinase inhibition; format: biochemical; details: at 1 nM; recombinant TEC
T10 construct: purchased Carna Biosciences, Inc
T10 sequence (P42680 1-631): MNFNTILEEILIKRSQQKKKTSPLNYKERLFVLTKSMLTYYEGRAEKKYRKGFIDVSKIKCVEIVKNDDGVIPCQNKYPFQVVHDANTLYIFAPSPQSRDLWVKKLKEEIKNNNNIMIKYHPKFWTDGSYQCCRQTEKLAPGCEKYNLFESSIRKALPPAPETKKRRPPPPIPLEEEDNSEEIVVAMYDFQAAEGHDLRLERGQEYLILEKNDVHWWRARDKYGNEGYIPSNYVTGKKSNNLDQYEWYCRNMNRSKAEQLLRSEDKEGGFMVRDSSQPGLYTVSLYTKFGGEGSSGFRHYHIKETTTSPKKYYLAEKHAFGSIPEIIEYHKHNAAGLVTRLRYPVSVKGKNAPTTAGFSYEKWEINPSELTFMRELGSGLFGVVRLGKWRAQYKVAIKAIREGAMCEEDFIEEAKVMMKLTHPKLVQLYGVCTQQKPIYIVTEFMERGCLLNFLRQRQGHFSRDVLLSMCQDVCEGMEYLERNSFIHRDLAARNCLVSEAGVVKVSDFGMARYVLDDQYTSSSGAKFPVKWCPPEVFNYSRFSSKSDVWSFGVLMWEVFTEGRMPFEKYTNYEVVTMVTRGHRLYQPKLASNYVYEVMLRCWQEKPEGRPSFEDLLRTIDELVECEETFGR

SRC = biological target: T11, SRC (Homo sapiens, UniProt P12931); test: Off-chip Mobility Shift Assay, kinase inhibition; format: biochemical; details: recombinant SRC
T11 construct: purchased Carna Biosciences, Inc
T11 sequence (P12931 whole entry): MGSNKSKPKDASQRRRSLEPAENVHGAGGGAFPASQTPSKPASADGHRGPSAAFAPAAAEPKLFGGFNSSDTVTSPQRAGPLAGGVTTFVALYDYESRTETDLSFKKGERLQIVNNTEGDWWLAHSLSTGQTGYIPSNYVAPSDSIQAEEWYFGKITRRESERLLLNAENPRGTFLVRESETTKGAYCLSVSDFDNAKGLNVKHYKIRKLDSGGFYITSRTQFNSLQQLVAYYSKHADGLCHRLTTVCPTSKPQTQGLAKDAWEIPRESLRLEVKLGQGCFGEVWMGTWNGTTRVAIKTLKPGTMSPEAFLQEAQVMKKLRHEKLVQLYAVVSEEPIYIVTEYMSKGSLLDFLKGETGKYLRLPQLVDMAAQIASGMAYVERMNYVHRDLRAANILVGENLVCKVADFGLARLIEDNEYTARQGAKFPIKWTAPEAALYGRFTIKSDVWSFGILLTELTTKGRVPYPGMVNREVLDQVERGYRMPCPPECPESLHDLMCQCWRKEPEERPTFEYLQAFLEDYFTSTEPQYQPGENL

LCK = biological target: T12, LCK (Homo sapiens, UniProt P06239); test: Off-chip Mobility Shift Assay, kinase inhibition; format: biochemical; details: recombinant LCK
T12 construct: purchased Carna Biosciences, Inc
T12 sequence (P06239 whole entry): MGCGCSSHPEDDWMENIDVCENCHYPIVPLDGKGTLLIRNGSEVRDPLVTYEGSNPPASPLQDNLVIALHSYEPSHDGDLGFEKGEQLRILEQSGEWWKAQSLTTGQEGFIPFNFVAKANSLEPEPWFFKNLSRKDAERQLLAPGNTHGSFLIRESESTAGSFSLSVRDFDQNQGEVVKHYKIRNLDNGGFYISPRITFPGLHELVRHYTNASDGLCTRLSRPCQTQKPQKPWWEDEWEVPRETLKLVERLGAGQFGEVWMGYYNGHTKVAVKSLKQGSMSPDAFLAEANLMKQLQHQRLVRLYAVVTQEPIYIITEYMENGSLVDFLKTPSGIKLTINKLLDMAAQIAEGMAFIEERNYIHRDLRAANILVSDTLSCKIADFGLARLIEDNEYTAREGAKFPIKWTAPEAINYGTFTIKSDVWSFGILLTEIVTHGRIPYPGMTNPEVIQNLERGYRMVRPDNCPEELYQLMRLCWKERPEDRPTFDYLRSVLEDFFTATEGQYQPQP

BLK = biological target: T13, BLK (Homo sapiens, UniProt P51451); test: Off-chip Mobility Shift Assay, kinase inhibition; format: biochemical; details: at 10 nM; recombinant BLK
T13 construct: purchased Carna Biosciences, Inc

T1 sequence (P06241 whole entry, canonical isoform): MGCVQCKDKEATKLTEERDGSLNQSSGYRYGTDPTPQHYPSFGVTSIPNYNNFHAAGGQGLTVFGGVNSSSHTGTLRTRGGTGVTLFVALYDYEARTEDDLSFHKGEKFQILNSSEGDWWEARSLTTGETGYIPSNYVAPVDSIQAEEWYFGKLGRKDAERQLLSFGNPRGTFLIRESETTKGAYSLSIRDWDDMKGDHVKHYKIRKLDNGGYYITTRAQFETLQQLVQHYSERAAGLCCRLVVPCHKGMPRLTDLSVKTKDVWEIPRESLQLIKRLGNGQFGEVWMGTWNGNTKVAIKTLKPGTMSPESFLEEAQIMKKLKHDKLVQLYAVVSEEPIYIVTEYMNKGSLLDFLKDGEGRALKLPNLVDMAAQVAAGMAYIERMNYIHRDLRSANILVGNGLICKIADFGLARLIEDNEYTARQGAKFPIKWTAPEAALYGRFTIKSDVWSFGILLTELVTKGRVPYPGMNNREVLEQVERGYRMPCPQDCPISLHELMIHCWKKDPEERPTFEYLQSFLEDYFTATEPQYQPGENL

Cc1nc(Nc2ncc(C(=O)Nc3c(C)cccc3Cl)s2)cc(N2CC[C@H](O)C2)n1 [Compound X, N-(2-chloro-6-methylphenyl)-2-[[2-methyl-6-((S)-3-hydroxypyrrolidin-1-yl)pyrimidin-4-yl]amino]thiazole-5-carboxamide]
inhibition at 0.01 µM (FYN(isoform a)): > 50%
inhibition at 0.01 µM (FGR): > 50%
inhibition at 0.01 µM (PDGFRα): > 50%
inhibition at 0.01 µM (ACK): > 50%
pIC50 (Mino): > 7.30
pIC50 (SU-DHL-4): > 7.70
inhibition at 0.001 µM (ABL(E255K); at 1 nM): > 50%
inhibition at 0.01 µM (ABL(E255K); at 10 nM): > 50%
inhibition at 0.001 µM (HCK; at 1 nM): > 50%
inhibition at 0.01 µM (HCK; at 10 nM, read-out: inhibition): > 50%
inhibition at 0.01 µM (ARG): > 50%
In vitro t1/2 ([1]; 1 μM, human liver microsomes 0.5 mg/mL, NADPH and UDPGA, 37° C.): 87 min
metabolic stability compared to dasatinib ([1]; human liver microsomes): significantly greater stability
activity to inhibit kinases [2]: potent activity
F, percent oral bioavailability ([3]; PO 5 mg/kg versus intravenous 1 mg/kg, AUCinf dose normalized, Table 3): 18.9±2%
intravenous plasma clearance compared to dasatinib and compound III ([3]; intravenous): much lower intravenous plasma clearance
intravenous volume of distribution compared to dasatinib and compound III ([3]; intravenous): significantly lower intravenous volume of distribution values
V ([3]; intravenous 1 mg/kg, Table 3, co-dosed with compound X): 1 ± 0 L/kg
inhibition at 0.001 µM (BTK; at 1 nM): > 50%
inhibition at 0.01 µM (BTK; at 10 nM): > 50%
inhibition at 0.001 µM (YES; at 1 nM): > 50%
inhibition at 0.01 µM (YES; at 10 nM): > 50%
inhibition at 0.001 µM (TEC): > 50%
inhibition at 0.001 µM (SRC; at 1 nM): > 50%
inhibition at 0.01 µM (SRC; at 10 nM): > 50%
inhibition at 0.001 µM (LCK; at 1 nM): > 50%
inhibition at 0.01 µM (LCK; at 10 nM): > 50%
inhibition at 0.01 µM (BLK): > 50%
